Laboratory results from ChEMBL document CHEMBL5236668, “Synthesis and biological evaluation of novel SN38-glucose conjugate for colorectal cancer treatment” (Bioorg Med Chem Lett, 2023).
In brackets after ≈: the same amount, converted by molar mass. Activity calls are given as the source filed them. No cut-off for these calls is given here.

Columns and labels:
[1] = Solubility of the compound in 0.9% NaCl solution; type: physicochemical
[2] = Solubility of the compound in water; type: physicochemical
[3] = Solubility of the compound in Tween 80 solution; type: physicochemical
SW480 [4] = assay: Antimigratory activity against human SW480 cells assessed as inhibition of cell migration by wound healing assay relative to control; type: functional; design: scale not given: the % may be the effect or the level left
HCT-116 [5] = assay: Induction of apoptosis in human HCT-116 cells assessed as early apoptotic cells at 25 uM by Annexin V-FITC staining based flow cytometry (reference value: 1.46 %); type: functional
SW480 [6] = assay: Induction of apoptosis in human SW480 cells assessed as appearance of wrinkled and round cells by Hoechst 33258 staining based analysis; type: functional, cell-based
SW480 [7] = assay: Induction of apoptosis in human SW480 cells assessed as early apoptotic cells at 25 uM by Annexin V-FITC staining based flow cytometry (reference value: 2.53 %); type: functional
SW480 [8] = assay: Antitumor activity against human SW480 cells xenografted in mouse assessed as reduction in tumor weight at 0.008 to 0.016 mmol/Kg, iv administered at 3 days intervals for 21 days; type: functional, organism-based; conditions: dose 0.008-0.016 mmol/Kg, time 21.0 day
[9] = Toxicity in nude mouse xenografted with human SW480 cells assessed as effect on WBC level at 0.016 mmol/Kg, iv administered at 3 days intervals for 21 days by routine blood test; type: organism-based; conditions: in vivo, 504 h, time 21 day
[10] = Cytotoxicity against human L02 cells assessed as inhibition of cell growth by MTT assay; type: toxicity, cell-based
SW480 [11] = assay: Induction of apoptosis in human SW480 cells assessed as late apoptotic cells at 25 uM by Annexin V-FITC staining based flow cytometry (reference value: 5.12 %); type: functional
[12] = Toxicity in nude mouse xenografted with human SW480 cells assessed as effect on PDW at 0.016 mmol/Kg, iv administered at 3 days intervals for 21 days by routine blood test; type: organism-based; conditions: in vivo, 504 h, time 21 day
SW480 [13] = assay: Induction of apoptosis in human SW480 cells assessed as blue chromatin condensation by Hoechst 33258 staining based analysis; type: functional, cell-based
HCT-116 [14] = assay: Induction of apoptosis in human HCT-116 cells assessed as late apoptotic cells at 25 uM by Annexin V-FITC staining based flow cytometry (reference value: 3.51 %); type: functional
SW480 [15] = assay: Antitumor activity against human SW480 cells xenografted in iv dosed mouse assessed as reduction in tumor volume administered at 3 days intervals for 21 days; type: functional, organism-based; conditions: dose 0.008-0.016 mmol/Kg, time 21.0 day
HCT-116 [16] = assay: Induction of apoptosis in human HCT-116 cells assessed as viable cells at 25 uM by Annexin V-FITC staining based flow cytometry (reference value: 94.3%); type: functional; conditions: read-out: Activity
[17] = Toxicity in nude mouse xenografted with human SW480 cells assessed as effect on RBC level at 0.016 mmol/Kg, iv administered at 3 days intervals for 21 days by routine blood test; type: organism-based, Erythrocyte; conditions: in vivo, 504 h, time 21 day
[18] = Selectivity index, ratio of IC50 for cytotoxicity against HEK293T cells to IC50 for anticancer activity against human HCT-116 cells; type: toxicity, cell-based; conditions: HEK293T cells and HCT-116 cells, read-out: Ratio IC50
SW480 [19] = assay: Induction of apoptosis in human SW480 cells assessed as appearance of paired apoptotic vesicles around the nucleus by Hoechst 33258 staining based analysis; type: functional, cell-based
HCT-116 [20] = assay: Inhibition of cell invasion in human HCT-116 cells by Boyden chamber invasion assay; type: functional, cell-based; conditions: dose 5-50 µM
SW480 [21] = assay: Induction of apoptosis in human SW480 cells assessed as viable cells at 25 uM by Annexin V-FITC staining based flow cytometry (reference value: 89.3 %); type: functional; conditions: read-out: Activity
[22] = Cytotoxicity against HEK293T cells assessed as inhibition of cell growth by MTT assay; type: toxicity, cell-based, HEK-293T; conditions: human
SW480 [23] = assay: Induction of apoptosis in human SW480 cells assessed as necrotic cells at 25 uM by Annexin V-FITC staining based flow cytometry (reference value: 3.05 %); type: functional
HCT-116 [24] = assay: Anticancer activity against human HCT-116 cells assessed as inhibition of cell growth by MTT assay; type: functional, cell-based
[25] = Toxicity in nude mouse xenografted with human SW480 cells assessed as effect on body weight at 0.008 to 0.016 mmol/Kg, iv administered at 3 days intervals for 21 days; type: organism-based; conditions: in vivo, 504 h, dose 0.008-0.016 mmol/Kg, time 21 day
HCT-116 [26] = assay: Antimigratory activity against human HCT-116 cells assessed as inhibition of cell migration by wound healing assay relative to control; type: functional; design: scale not given: the % may be the effect or the level left
[27] = Toxicity in nude mouse xenografted with human SW480 cells assessed as effect on hemoglobin level at 0.016 mmol/Kg, iv administered at 3 days intervals for 21 days by routine blood test; type: organism-based; conditions: in vivo, 504 h, time 21 day
SW480 [28] = assay: Inhibition of cell invasion in human SW480 cells by Boyden chamber invasion assay; type: functional, cell-based; conditions: dose 5-50 µM
[29] = Toxicity in nude mouse xenografted with human SW480 cells assessed as effect on albumin level at 0.016 mmol/Kg, iv administered at 3 days intervals for 21 days; type: organism-based; conditions: in vivo, 504 h, time 21 day
[30] = Toxicity in nude mouse xenografted with human SW480 cells assessed as effect on total protein level at 0.016 mmol/Kg, iv administered at 3 days intervals for 21 days; type: organism-based; conditions: in vivo, 504 h, time 21 day
[31] = Toxicity in nude mouse xenografted with human SW480 cells assessed as effect on MCH level at 0.016 mmol/Kg, iv administered at 3 days intervals for 21 days by routine blood test; type: organism-based; conditions: in vivo, 504 h, time 21 day
HCT-116 [32] = assay: Induction of apoptosis in human HCT-116 cells assessed as appearance of wrinkled and round cells by Hoechst 33258 staining based analysis; type: functional, cell-based
SW480 [33] = assay: Antitumor activity against human SW480 cells xenografted in mouse assessed as reduction in tumor growth at 0.008 to 0.016 mmol/Kg, iv administered at 3 days intervals for 21 days; type: functional, organism-based; conditions: dose 0.008-0.016 mmol/Kg, time 21.0 day
[34] = Toxicity in nude mouse xenografted with human SW480 cells assessed as effect on cholesterol level at 0.016 mmol/Kg, iv administered at 3 days intervals for 21 days; type: organism-based; conditions: in vivo, 504 h, time 21 day
SW480 [35] = assay: Anticancer activity against human SW480 cells assessed as inhibition of cell growth by MTT assay; type: functional, cell-based
[36] = Selectivity index, ratio of IC50 for cytotoxicity against human L02 cells to IC50 for anticancer activity against human SW480 cells; type: toxicity, cell-based; conditions: L02 cells and SW480 cells, read-out: Ratio IC50
[37] = Selectivity index, ratio of IC50 for cytotoxicity against HEK293T cells to IC50 for anticancer activity against human SW480 cells; type: toxicity, cell-based; conditions: HEK293T cells and SW480 cells, read-out: Ratio IC50
[38] = Toxicity in nude mouse xenografted with human SW480 cells assessed as effect on alanine transaminase level at 0.016 mmol/Kg, iv administered at 3 days intervals for 21 days; type: organism-based; conditions: in vivo, 504 h, time 21 day
HCT-116 [39] = assay: Induction of apoptosis in human HCT-116 cells assessed as blue chromatin condensation by Hoechst 33258 staining based analysis; type: functional, cell-based
[40] = Toxicity in nude mouse xenografted with human SW480 cells assessed as effect on MCV level at 0.016 mmol/Kg, iv administered at 3 days intervals for 21 days by routine blood test; type: organism-based; conditions: in vivo, 504 h, time 21 day
[41] = Selectivity index, ratio of IC50 for cytotoxicity against human L02 cells to IC50 for anticancer activity against human HCT-116 cells; type: toxicity, cell-based; conditions: L02 cells and HCT-116 cells, read-out: Ratio IC50
HCT-116 [42] = assay: Induction of apoptosis in human HCT-116 cells assessed as appearance of paired apoptotic vesicles around the nucleus by Hoechst 33258 staining based analysis; type: functional, cell-based
HCT-116 [43] = assay: Induction of apoptosis in human HCT-116 cells assessed as necrotic cells at 25 uM by Annexin V-FITC staining based flow cytometry (reference value: 0.73 %); type: functional
[44] = Toxicity in nude mouse xenografted with human SW480 cells assessed as effect on blood urea nitrogen level at 0.016 mmol/Kg, iv administered at 3 days intervals for 21 days; type: organism-based; conditions: in vivo, 504 h, time 21 day
[45] = Toxicity in nude mouse xenografted with human SW480 cells assessed as effect on creatinine level at 0.016 mmol/Kg, iv administered at 3 days intervals for 21 days; type: organism-based; conditions: in vivo, 504 h, time 21 day
[46] = Toxicity in iv dosed nude mouse xenografted with human SW480 cells assessed as effect on body weight administered at 3 days intervals for 21 days; type: organism-based; conditions: in vivo, 504 h, time 21 day

`CCc1c2c(nc3ccc(O)cc13)-c1cc3c(c(=O)n1C2)COC(=O)[C@]3(O)CC` [7-ETHYL-10-HYDROXYCAMPTOTHECIN] gave a solubility [1] of 17.6 µg/mL (≈ 45 µM), a solubility [2] of 7.74 µg/mL (≈ 19.7 µM) and a solubility [3] of 77.4 µg/mL (≈ 197 µM).
In the case of `CCc1c2c(nc3ccc(OC(=O)NCCOCc4cn(CCO[C@H]5O[C@@H](CO)[C@H](O)[C@@H](O)[C@@H]5O)nn4)cc13)-c1cc3c(c(=O)n1C2)COC(=O)[C@]3(O)CC`, the Activity (SW480 [4]) is reported as 26.7%, the Activity (HCT-116 [5]) is reported as 3.67% and the Activity (SW480 [6]) is reported as “Active”. For the same compound, the Activity (SW480 [7]) was 6%, the Activity (SW480 [8]) was “Active” and the Activity [9] was “Non-Toxic”. For the same compound, the IC50 [10] was 1.54 µM, the Activity (SW480 [11]) was 38.7% and the Activity [12] was “Non-Toxic”. For the same compound, the Activity (SW480 [13]) was “Active”, the Activity (HCT-116 [14]) was 14.1% and the Activity (SW480 [15]) was “Dose-Dependent Effect”. The viability at 25 µM (HCT-116 [16]) was 80.1%, the Activity [17] was “Non-Toxic” and the selectivity ratio [18] was 73.5. The Activity (SW480 [19]) was “Active”, the inhibition (HCT-116 [20]) was “Dose-Dependent Effect” and the viability at 25 µM (SW480 [21]) was 50%. For the same compound, the IC50 [22] was 19.8 µM, the Activity (SW480 [23]) was 5.33% and the solubility [2] was 2530 µg/mL (≈ 3300 µM). The IC50 (HCT-116 [24]) was 0.27 µM, the Activity [25] was “Non-Toxic” and the Activity (HCT-116 [26]) was 20.1%. For the same compound, the Activity [27] was “Non-Toxic”, the inhibition (SW480 [28]) was “Dose-Dependent Effect” and the Activity [29] was “Non-Toxic”. The Activity [30] was “Non-Toxic”, the Activity [31] was “Non-Toxic” and the Activity (HCT-116 [32]) was “Active”. The Activity (SW480 [33]) was “Active”, the Activity [34] was “Non-Toxic” and the IC50 (SW480 [35]) was 0.16 µM. The selectivity ratio [36] was 9.62, the selectivity ratio [37] was 124 and the Activity [38] was “Non-Toxic”. For the same compound, the Activity (HCT-116 [39]) was “Active”, the Activity [40] was “Non-Toxic” and the selectivity ratio [41] was 5.7. The Activity (HCT-116 [42]) was “Active”, the Activity (HCT-116 [43]) was 2.2% and the Activity [44] was “Non-Toxic”. The Activity [45] was “Non-Toxic”.
`CCc1c2c(nc3ccc(OC(=O)N4CCC(N5CCCCC5)CC4)cc13)-c1cc3c(c(=O)n1C2)COC(=O)[C@]3(O)CC` [IRINOTECAN] gave an Activity (SW480 [4]) of 74.5%, an Activity (HCT-116 [5]) of 1.51% and an IC50 [10] of 22.2 µM. The Activity (SW480 [11]) was 10.7%, the Activity [46] was “Non-Toxic” and the Activity (HCT-116 [14]) was 6.15%. The viability at 25 µM (HCT-116 [16]) was 92.5%, the viability at 25 µM (SW480 [21]) was 85% and the IC50 [22] was 19.8 µM. The Activity (SW480 [23]) was 0.871%, the solubility [1] was 1200 µg/mL (≈ 2050 µM) and the solubility [2] was 5590 µg/mL (≈ 9530 µM). It also gave an IC50 (HCT-116 [24]) of 14.2 µM, an IC50 (SW480 [35]) of 11.2 µM and an Activity (HCT-116 [43]) of 0.256%.
